Earlier results in patent US20100008923A1, “Organic Compounds” (Novartis AG, priority 2006, published 2010).

Experiments:
[1] = for Potential side effects at upper limits: at upper limit of daily intake
HDAC = conditions: Kwon et al. (1998)

Row | Molecule | Potential side effects at upper limits [1] | Upper limit of daily intake [1] | HDAC inhibition (HDAC)
1 | O=C(O)c1cccnc1 [B3, nicotinic acid] | Liver problems | Above 3000 mg | –
2 | Cc1ncc(CO)c(CO)c1O [B6, pyridoxine] | – | Above 100 mg | –
3 | Nc1nc2ncc(CNc3ccc(C(=O)N[C@@H](CCC(=O)O)C(=O)O)cc3)nc2c(=O)[nH]1 [B9, folic acid] | No known | – | –
4 | cyanocobalamin [B12] | No known | – | –
5 | depudecin | – | – | inhibit HDAC at micromolar concentrations
